# Experimental data from patent US6410253B1, “Cholesterol oxidase” (priority 1990, dated 2002).
# Assays:
# Assay type in all cases: biochemical, Brevibacterium sterolicum ATCC 21387
# [1] = target: T1, cholesterol oxidase I (Brevibacterium sterolicum, UniProt P22637); test: Substrate specificity of cholesterol oxidase I (relative activity on sterol substrates); details: cholesterol = 100
# Method: (§1) The amount of enzyme which catalyzes the reaction of decomposing 1 μmole of cholesterol at 37° C. for one minute in the presence of oxygen is defined as one unit. The titer is determined as follows. While shaking, the enzyme acts on cholesterol and 4-aminoantipyrine and phenol are reacted with the formed hydrogen peroxide in the presence of peroxidase to form quinonimine pigment. Absorption of the thus formed quinonimine pigment in the visible region is measured to determine the amount of hydrogen peroxide generated. Thus, the titer of the enzyme is determined. Hereafter specific activity is defined as activity per 1 mg of protein (unit/mg).
# (§2) The enzyme activity is determined by reacting hydrogen peroxide generated by the enzyme with 4-aminoantipyrine and phenol in the presence of peroxidase and quantitatively determining the formed quinonimine pigment. The reaction is shown by the following equations (1) and (2). [drawing 3]
# (§3) The mixture is agitated. After maintaining at 37° C. for 3 minutes, 0.2 ml of an enzyme solution is added to the mixture. While shaking, the reaction is carried out at 37° C. for 5 to 10 minutes. Then, absorbance is measured at 500 nm (OD 500 nm)
# [2] = tested on: cholesterol oxidase II; test: Substrate specificity of cholesterol oxidase II (relative activity on sterol substrates); details: for Relative Activity (%) of cholesterol oxidase II on substrate: cholesterol = 100; for Substrate specificity (acts / does not act on): cholesterol oxidase II
# Method: as §1, §2, §3
# [3] = tested on: cholesterol oxidase II; test: Influence of inhibitor on cholesterol oxidase II activity; details: for Inhibition of the enzyme (in words): cholesterol oxidase II; for Relative Activity (%) of cholesterol oxidase II in the presence of inhibitor: inhibitor 1 mM, activity in the absence of inhibitor = 100
# Method: (§4) Relative activity is shown in Table 2, in the presence of an inhibitor at a concentration of 1 mM, when in the absence of the inhibitor, the activities of cholesterol oxidases I and II are regarded as 100.
# as §1, with “(unit/mg). Furthermore, an amount of enzyme protein is determined by absorbance at 280 nm (1 mg/ml when absorbance is 1).” for “(unit/mg).”
# In a test tube, there are charged 1.0 ml of 3 mM cholesterol solution (which is prepared by adding 6 ml of 50 mM cholesterol ethanol solution to 94 ml of 1.05% Triton X-100 solution with stirring, heating the mixture for 10 minutes on a water bath, cooling the mixture in water, adding distilled water to the mixture until the total volume is 100 ml; and is not allowed to be used 30 minutes or longer after preparation) , 0.3 ml of 50 mM sodium bilate solution, 0.3 ml of 0.5 mM potassium-sodium phosphate buffer (pH 6.6), 0.5 ml of 42 mM phenol, 0.5 ml of 2.4 mM 4-aminoantipyrine and 0.2 ml of 115 units/ml horseradish-derived peroxidase. The mixture is agitated. After maintaining at 37° C. for 3 minutes, 0.2 ml of an enzyme solution is added to the mixture. While shaking, the reaction is carried out at 37° C. for 5 to 10 minutes. Then, absorbance is measured at 500 nm (OD 500 nm)
# [4] = target: T1, cholesterol oxidase I; test: Influence of inhibitor on cholesterol oxidase I activity; details: inhibitor 1 mM; activity in the absence of inhibitor = 100
# Method: as §4
# as §1, with “(unit/mg). Furthermore, an amount of enzyme protein is determined by absorbance at 280 nm (1 mg/ml when absorbance is 1). […]” for “(unit/mg).”
# T1 sequence (P22637 46-552): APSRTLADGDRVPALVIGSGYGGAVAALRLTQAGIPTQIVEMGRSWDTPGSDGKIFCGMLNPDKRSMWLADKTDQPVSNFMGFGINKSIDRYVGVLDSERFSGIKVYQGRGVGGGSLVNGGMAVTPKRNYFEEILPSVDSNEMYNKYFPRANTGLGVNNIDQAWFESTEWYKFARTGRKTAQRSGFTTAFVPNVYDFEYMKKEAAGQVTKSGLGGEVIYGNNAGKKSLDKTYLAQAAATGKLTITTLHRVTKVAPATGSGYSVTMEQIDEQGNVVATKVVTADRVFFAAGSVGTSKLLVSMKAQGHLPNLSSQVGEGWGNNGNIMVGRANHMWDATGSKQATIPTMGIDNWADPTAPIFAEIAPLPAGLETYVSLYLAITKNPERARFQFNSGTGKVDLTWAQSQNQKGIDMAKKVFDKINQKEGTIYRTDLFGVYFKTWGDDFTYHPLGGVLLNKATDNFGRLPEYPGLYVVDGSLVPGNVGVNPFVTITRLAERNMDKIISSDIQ
smiles,measurement,setting,value
CCCCC/C=C\C/C=C\CCCCCCCC(=O)O[C@H]1CC[C@@]2(C)C(=CC[C@H]3[C@@H]4CC[C@H]([C@H](C)CCCC(C)C)[C@@]4(C)CC[C@@H]32)C1 [Cholesterol linoleate],Relative Activity (%) of cholesterol oxidase I on substrate,[1],0%
same,Relative Activity (%) of cholesterol oxidase II on substrate,[2],0%
same,Substrate specificity (acts / does not act on),[2],does not act on
C[C@]12CC[C@H](O)CC1=CC[C@@H]1[C@@H]2CC[C@]2(C)C(=O)CC[C@@H]12 [Dehydroisoandrosterone],Relative Activity (%) of cholesterol oxidase I on substrate,[1],41.4%
same,Relative Activity (%) of cholesterol oxidase II on substrate,[2],13.0%
CC(C)=CCC[C@@H](C)[C@H]1CC[C@@]2(C)C3=C(CC[C@]12C)[C@@]1(C)CC[C@H](O)C(C)(C)[C@@H]1CC3 [Lanosterol],Relative Activity (%) of cholesterol oxidase I on substrate,[1],0%
same,Relative Activity (%) of cholesterol oxidase II on substrate,[2],0%
same,Substrate specificity (acts / does not act on),[2],does not act on
O=S(=O)(O)c1cc[c]([Hg][Cl])cc1 [p-Chloromercury benzenesulfonate],Inhibition of the enzyme (in words),[3],inhibited
same,Relative Activity (%) of cholesterol oxidase II in the presence of inhibitor,[3],87.0%
same,Relative Activity (%) of cholesterol oxidase I in the presence of inhibitor,[4],80.0%
Oc1cccc2cccnc12 [o-Hydroxyquinoline],Inhibition of the enzyme (in words),[3],inhibited
same,Relative Activity (%) of cholesterol oxidase II in the presence of inhibitor,[3],91.3%
C=C1CC[C@H](O)C/C1=C/C=C1\CCC[C@]2(C)[C@@H]([C@H](C)CCCC(C)C)CC[C@@H]12 [Vitamin D3],Relative Activity (%) of cholesterol oxidase I on substrate,[1],0%
same,Relative Activity (%) of cholesterol oxidase II on substrate,[2],0%
same,Substrate specificity (acts / does not act on),[2],does not act on
CC(=O)[C@H]1CC[C@H]2[C@@H]3CC=C4C[C@@H](O)CC[C@]4(C)[C@H]3CC[C@]12C [Pregnenolone],Relative Activity (%) of cholesterol oxidase I on substrate,[1],22.4%
same,Relative Activity (%) of cholesterol oxidase II on substrate,[2],32.9%
CC[C@H](CC[C@@H](C)[C@H]1CC[C@H]2[C@@H]3CC=C4C[C@@H](O)CC[C@]4(C)[C@H]3CC[C@]12C)C(C)C [β-Sitosterol],Relative Activity (%) of cholesterol oxidase I on substrate,[1],19.7%
same,Relative Activity (%) of cholesterol oxidase II on substrate,[2],82.0%
"O=[N+]([O-])[O-].[Ag+] [AgNO3, silver nitrate]",Inhibition of the enzyme (in words),[3],inhibited
same,Relative Activity (%) of cholesterol oxidase II in the presence of inhibitor,[3],1.0%
same,Relative Activity (%) of cholesterol oxidase I in the presence of inhibitor,[4],0%
"CC(C)CCC[C@@H](C)[C@H]1CC[C@H]2[C@@H]3CC=C4C[C@@H](O)CC[C@]4(C)[C@H]3CC[C@]12C [Cholesterol, 5-cholesten-3-β-ol]",Relative Activity (%) of cholesterol oxidase I on substrate,[1],100%
same,Relative Activity (%) of cholesterol oxidase II on substrate,[2],100%
CC[C@H](/C=C/[C@@H](C)[C@H]1CC[C@H]2[C@@H]3CC=C4C[C@@H](O)CC[C@]4(C)[C@H]3CC[C@]12C)C(C)C [Stigmasterol],Relative Activity (%) of cholesterol oxidase I on substrate,[1],10.0%
same,Relative Activity (%) of cholesterol oxidase II on substrate,[2],64.4%
C[C@]12CC[C@@H](O)C[C@@H]1CC[C@@H]1[C@@H]2CC[C@]2(C)C(=O)CC[C@@H]12 [Androsterone],Relative Activity (%) of cholesterol oxidase I on substrate,[1],0%
same,Relative Activity (%) of cholesterol oxidase II on substrate,[2],0%
same,Substrate specificity (acts / does not act on),[2],does not act on
C[C@]12CC[C@@H]3c4ccc(O)cc4CC[C@H]3[C@@H]1CC[C@@H]2O [Estradiol],Relative Activity (%) of cholesterol oxidase I on substrate,[1],0%
